Results from patent publication US20230063462A1, “SULFONIMIDAMIDE COMPOUNDS AND COMPOSITIONS FOR TREATING CONDITIONS ASSOCIATED WITH NLRP ACTIVITY” (NOVARTIS AG, priority 2019, published 2023).

Tested on: THP-1 cells
Test: hTHP-1 assay: gramicidin-stimulated IL-1β detection in PMA-treated THP-1 cells
Type: cell-based, human
Details: Table B2, 10% FBS

SMILES	IC50 (class symbol) [nM]	IC50 (numeric value) [nM]
NS(=O)(=NC(=O)Nc1c2c(nc(C3CC3)c1C1CC1)CCC2)c1nn(C2CC2)cc1F (single isomer, unassigned) [Example 883, (S) or (R)-1-cyclopropyl-N′-((2,3-dicyclopropyl-6,7-dihydro-5H-cyclopenta[b]pyridin-4-yl)carbamoyl)-4-fluoro-1H-pyrazole-3-sulfonimidamide]	1000 to 5000	1250
NS(=O)(=NC(=O)Nc1c2c(nc3c1CCC31CC1)CCC2)c1ccn(C2CC2)n1 (single isomer, unassigned) [Example 884, (R) or (S)-1-cyclopropyl-N′-((1′,5′,6′,7′-tetrahydro-2′H-spiro[cyclopropane-1,3′-dicyclopenta[b,e]pyridin]-8′-yl)carbamoyl)-1H-pyrazole-3-sulfonimidamide]	40 to 200	53.3
NS(=O)(=NC(=O)Nc1c2c(nc3c1CCC31CC1)CCC2)c1ccn(C2CC2)n1 (single isomer, unassigned) [Example 885, (S) or (R)-1-cyclopropyl-N′-((1′,5′,6′,7′-tetrahydro-2′H-spiro[cyclopropane-1,3′-dicyclopenta[b,e]pyridin]-8′-yl)carbamoyl)-1H-pyrazole-3-sulfonimidamide]	1000 to 5000	2260
NS(=O)(=NC(=O)Nc1c2c(nc3c1CCC3)CCC2)c1ccn(C2CC2)n1 (single isomer, unassigned) [Example 886, (R) or (S)-1-cyclopropyl-N′-((1,2,3,5,6,7-hexahydrodicyclopenta [b,e]pyridin-8-yl)carbamoyl)-1H-pyrazole-3-sulfonimidamide]	200 to 1000	270
NS(=O)(=NC(=O)Nc1c2c(nc3c1CCC3)CCC2)c1ccn(C2CC2)n1 (single isomer, unassigned) [Example 887, (S) or (R)-1-cyclopropyl-N′-((1,2,3,5,6,7-hexahydrodicyclopenta [b,e]pyridin-8-yl)carbamoyl)-1H-pyrazole-3-sulfonimidamide]	5000 to 30000	5880
C[C@@H]1CCc2c1nc1c(c2NC(=O)N=S(N)(=O)c2ccn(C3CC3)n2)CCC1 (single isomer, unassigned) [Example 888, (R) or (S)-1-cyclopropyl-N′-(((R)-3-methyl-1,2,3,5,6,7-hexahydrodicyclopenta [b,e]pyridin-8-yl)carbamoyl)-1H-pyrazole-3-sulfonimidamide]	40 to 200	49.4
C[C@@H]1CCc2c1nc1c(c2NC(=O)N=S(N)(=O)c2ccn(C3CC3)n2)CCC1 (single isomer, unassigned) [Example 889, (S) or (R)-1-cyclopropyl-N′-(((R)-3-methyl-1,2,3,5,6,7-hexahydrodicyclopenta [b,e]pyridin-8-yl)carbamoyl)-1H-pyrazole-3-sulfonimidamide]	1000 to 5000	1670
Cc1c(C(F)(F)F)nc2c(c1NC(=O)N=S(N)(=O)c1ccn(C3CC3)n1)CCC2 (single isomer, unassigned) [Example 890, (R) or (S)-1-cyclopropyl-N′-((3-methyl-2-(trifluoromethyl)-6,7-dihydro-5H-cyclopenta [b]pyridin-4-yl)carbamoyl)-1H-pyrazole-3-sulfonimidamide]	40 to 200	108
Cc1c(C(F)(F)F)nc2c(c1NC(=O)N=S(N)(=O)c1ccn(C3CC3)n1)CCC2 (single isomer, unassigned) [Example 891, (S) or (R)-1-cyclopropyl-N′-((3-methyl-2-(trifluoromethyl)-6,7-dihydro-5H-cyclopenta [b]pyridin-4-yl)carbamoyl)-1H-pyrazole-3-sulfonimidamide]	5000 to 30000	6510
C[C@@H](O)Cn1cc(F)c(S(N)(=O)=NC(=O)Nc2c3c(nc4c2CCC42CC2)CCC3)n1 (single isomer, unassigned) [Example 892, (R) or (S)-4-fluoro-1-((R)-2-hydroxypropyl)-N′-((1′,5′,6′,7′-tetrahydro-2′H-spiro [cyclopropane-1,3′-dicyclopenta[b,e]pyridin]-8′-yl)carbamoyl)-1H-pyrazole-3-sulfonimidamide]	8 to 40	12.7
C[C@@H](O)Cn1cc(F)c(S(N)(=O)=NC(=O)Nc2c3c(nc4c2CCC42CC2)CCC3)n1 (single isomer, unassigned) [Example 893, (S) or (R)-4-fluoro-1-((R)-2-hydroxypropyl)-N′-((1′,5′,6′,7′-tetrahydro-2′H-spiro [cyclopropane-1,3′-dicyclopenta[b,e]pyridin]-8′-yl)carbamoyl)-1H-pyrazole-3-sulfonimidamide]	200 to 1000	679
C[C@H](O)Cn1cc(F)c(S(N)(=O)=NC(=O)Nc2c3c(nc4c2CCC42CC2)CCC3)n1 (single isomer, unassigned) [Example 896, (R) or (S)-4-fluoro-1-((S)-2-hydroxypropyl)-N′-((1′,5′,6′,7′-tetrahydro-2′H-spiro [cyclopropane-1,3′-dicyclopenta[b,e]pyridin]-8′-yl)carbamoyl)-1H-pyrazole-3-sulfonimidamide]	8 to 40	13.6
C[C@H](O)Cn1cc(F)c(S(N)(=O)=NC(=O)Nc2c3c(nc4c2CCC42CC2)CCC3)n1 (single isomer, unassigned) [Example 897, (S) or (R)-4-fluoro-1-((S)-2-hydroxypropyl)-N′-((1′,5′,6′,7′-tetrahydro-2′H-spiro [cyclopropane-1,3′-dicyclopenta[b,e]pyridin]-8′-yl)carbamoyl)-1H-pyrazole-3-sulfonimidamide]	200 to 1000	310
